# Measured values as given in ChEMBL document CHEMBL5137118, “Zamamiphidins B and C, Manzamine-Related Alkaloids from an Amphimedon sp. Marine Sponge Collected in Okinawa” (J Nat Prod, 2022).
# Tests used:
# [1] = test system: L1210; assay: Cytotoxicity against mouse L1210 cells assessed as inhibition of cell growth; assay type: functional, cell-based
# [2] = biological target: Acetylcholinesterase (Electrophorus electricus, UniProt O42275); assay: Inhibition of electric eel AChE using acetylthiocholine iodide as substrate preincubated for 30 mins followed by substrate addition and measured after 5 mins by DTNB-reagent based Ellman's method
# [3] = test system: KB; assay: Cytotoxicity against human KB cells assessed as inhibition of cell growth; assay type: functional, cell-based
# Chain of Acetylcholinesterase (O42275 whole entry): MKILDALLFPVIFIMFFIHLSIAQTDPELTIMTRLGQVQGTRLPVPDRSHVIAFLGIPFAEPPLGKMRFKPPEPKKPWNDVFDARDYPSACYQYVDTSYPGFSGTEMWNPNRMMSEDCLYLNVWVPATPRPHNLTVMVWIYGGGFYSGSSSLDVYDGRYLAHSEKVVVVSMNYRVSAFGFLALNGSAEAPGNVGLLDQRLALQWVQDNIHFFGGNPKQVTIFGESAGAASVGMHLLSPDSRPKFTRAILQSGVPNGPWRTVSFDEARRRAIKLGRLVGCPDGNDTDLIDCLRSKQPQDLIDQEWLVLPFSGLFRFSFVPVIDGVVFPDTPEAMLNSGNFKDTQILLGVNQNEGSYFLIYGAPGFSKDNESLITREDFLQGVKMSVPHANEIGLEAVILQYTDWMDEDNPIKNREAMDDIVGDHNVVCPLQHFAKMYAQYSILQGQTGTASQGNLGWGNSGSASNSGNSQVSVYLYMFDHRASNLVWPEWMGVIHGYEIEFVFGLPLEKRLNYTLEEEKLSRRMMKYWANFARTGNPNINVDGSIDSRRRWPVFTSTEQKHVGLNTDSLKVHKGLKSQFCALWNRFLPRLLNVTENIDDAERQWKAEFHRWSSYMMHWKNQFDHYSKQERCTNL
Compound,IC50 [1],IC50 [2],IC50 [3]
O[C@H]1CCCC[N+]23C[C@@H]4C=C5CC/C=C\CCCCN6CC[C@@H]4[C@](CC[C@H]12)(C6)[C@H]53,> 10 µg/mL,350 µM,> 10 µg/mL
O[C@@H]1CCCC[N+]23C[C@@H]4C=C5CC/C=C\CCCCN6CC[C@@H]4[C@](CC[C@H]12)(C6)[C@H]53,> 10 µg/mL,470 µM,> 10 µg/mL
